Laboratory results taken from patent publication US7683091B2, “Substituted indoles and methods of their use” (Wyeth, priority 2005, dated 2010).

Molecular target: T1, recombinant human plasminogen activator inhibitor-1 (PAI-1) (Homo sapiens, UniProt P05121)
T1 construct: purchased Molecular Innovations, Royal Oak, Mich
Assay: Primary Screen for PAI-1 Inhibition (chromogenic tPA activity assay)
Type: biochemical
Conditions: 140 nM PAI-1, 70 nM tPA, pH 6.6
Protocol: Primary Screen for PAI-1 Inhibition
The ability of the compounds of this invention to inhibit Plasminogen Activator Inhibitor-1 was established by the following experimental procedure:
Test compounds were dissolved in DMSO at a final concentration of 10 mM, then diluted […] in physiologic buffer. The inhibitory assay was initiated by the addition of the test compound (1-100 μM final concentration, maximum DMSO concentration of 0.2%) in a pH 6.6 buffer containing 140 nM recombinant human plasminogen activator inhibitor-1 (PAI-1; Molecular Innovations, Royal Oak, Mich.). Following a 1 hour incubation at room temperature, 70 nM of recombinant human tissue plasminogen activator (tPA) was added, and the combination of the test compound, PAI-1 and tPA was incubated for an additional 30 minutes. Following the second incubation, Spectrozyme-tPA (American Diagnostica, Greenwich, Conn.), a chromogenic substrate for tPA, was added and absorbance read at 405 nm at 0 and 60 minutes. Relative PAI-1 inhibition is equal to the residual tPA activity in the presence of the test compound and PAI-1. Control treatments include the complete inhibition of tPA by PAI-1 at the molar ratio employed (2:1), and the absence of any effect of the test compound on tPA alone.

T1 sequence (P05121 24-402): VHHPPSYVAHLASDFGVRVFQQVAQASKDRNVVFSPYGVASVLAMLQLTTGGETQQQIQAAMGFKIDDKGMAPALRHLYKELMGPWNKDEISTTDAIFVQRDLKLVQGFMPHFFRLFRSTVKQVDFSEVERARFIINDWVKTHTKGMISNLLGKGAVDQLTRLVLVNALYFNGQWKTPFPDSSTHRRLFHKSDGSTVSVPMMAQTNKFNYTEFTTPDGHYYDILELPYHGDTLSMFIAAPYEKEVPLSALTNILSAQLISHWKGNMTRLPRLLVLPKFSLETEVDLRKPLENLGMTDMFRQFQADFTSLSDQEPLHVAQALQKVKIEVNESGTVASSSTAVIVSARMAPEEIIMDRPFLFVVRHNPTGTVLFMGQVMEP

Question: How did the inhibition at 25 µM turn out when `CC(C)(C)c1ccc(Cn2ccc3cc(NS(=O)(=O)c4cccc(C(=O)O)c4)ccc32)cc1` [Example 1, 3-({[1-(4-tert-butylbenzyl)-1H-indol-5-yl]amino}sulfonyl)benzoic acid] was run?
Answer: 6 to 78%

Question: For `COC(=O)CN(c1ccc2c(ccn2Cc2ccc(C(C)(C)C)cc2)c1)S(=O)(=O)c1ccccc1` [Example 2, {Benzenesulfonyl-[1-(4-tert-butyl-benzyl)-1H-indol-5-yl]-amino}-acetic acid methyl ester], which inhibition at 25 µM is on record?
Answer: 6 to 78%

Question: Which inhibition at 25 µM does the source give for `CC(C)(C)c1ccc(Cn2ccc3cc(N(Cc4ccc(C(=O)O)cc4)S(=O)(=O)c4ccccc4)ccc32)cc1` [Example 3, 4-{[[1-(4-tert-Butylbenzyl)-1H-indol-5-yl](phenylsulfonyl)amino]methyl}benzoic acid] here?
Answer: 6 to 78%

Question: For `CC(C)(C)c1ccc(Cn2ccc3cc(NS(=O)(=O)c4ccc(C(=O)O)cc4)ccc32)cc1` [Example 4, 4-({[1-(4-tert-butylbenzyl)-1H-indol-5-yl]amino}sulfonyl)benzoic acid], which inhibition at 25 µM is on record?
Answer: 6 to 78%

Question: For `CC(C)(C)c1ccc(Cn2ccc3cc(NC(=O)N[C@@H](Cc4ccccc4)C(=O)O)ccc32)cc1` [Example 5, N-({[1-(4-tert-Butylbenzyl)-1H-indol-5-yl]amino}carbonyl)-L-phenylalanine], which inhibition at 25 µM is on record?
Answer: 6 to 78%

Question: `CC(C)(C)c1ccc(Cn2ccc3cc(NC(=O)Nc4cccc(C(=O)O)c4)ccc32)cc1` [Example 6, 3-[({[1-(4-tert-Butylbenzyl)-1H-indol-5-yl]amino}carbonyl)amino]benzoic acid] was tested. Which inhibition at 25 µM did it give?
Answer: 6 to 78%

Question: For `O=C(O)COc1ccc(Cn2ccc3cc(NS(=O)(=O)c4ccc(-c5ccccc5)cc4)ccc32)cc1` [Example 7, [4-({5-[(1,1′-Biphenyl-4-ylsulfonyl)amino]-1H-indol-1-yl}methyl)phenoxy]acetic acid], which inhibition at 25 µM is on record?
Answer: 6 to 78%

Question: `CC(C)(C)c1ccc(S(=O)(=O)Nc2ccc3c(ccn3Cc3ccc(OCC(=O)O)cc3)c2)cc1` [Example 8, {4-[(5-{[(4-tert-Butylphenyl)sulfonyl]amino}-1H-indol-1-yl)methyl]phenoxy}acetic acid] was tested. Which inhibition at 25 µM did it give?
Answer: 6 to 78%

Question: Which inhibition at 25 µM does the source give for `O=C(O)C(Cc1ccccc1)n1ccc2cc(NS(=O)(=O)c3ccc(OC(F)(F)F)cc3)ccc21` (stereo not drawn) [Example 9, 3-Phenyl-2-[5-({[4-(trifluoromethoxy)phenyl]sulfonyl}amino)-1H-indol-1-yl]propanoic acid] here?
Answer: 6 to 78%

Question: With `O=C(N[C@@H](Cc1ccccc1)C(=O)O)c1ccc(Cn2ccc3cc(NS(=O)(=O)c4ccccc4)ccc32)cc1` [Example 10, N-[4-({5-[(Phenylsulfonyl)amino]-1H-indol-1-yl}methyl)benzoyl]-L-phenylalanine] as the molecule, how does the inhibition at 25 µM read?
Answer: 6 to 78%

Question: With `O=C(N[C@@H](Cc1ccccc1)C(=O)O)c1ccc(Cn2ccc3cc(NS(=O)(=O)c4ccc(OC(F)(F)F)cc4)ccc32)cc1` [Example 11, N-(4-{[5-({[4-(Trifluoromethoxy)phenyl]sulfonyl}amino)-1H-indol-1-yl]methyl}benzoyl)-L-phenylalanine] as the molecule, how does the inhibition at 25 µM read?
Answer: 6 to 78%

Question: Which inhibition at 25 µM does the source give for `O=C(N[C@@H](Cc1ccccc1)C(=O)O)c1ccc(Cn2ccc3cc(NS(=O)(=O)c4ccc(-c5ccccc5)cc4)ccc32)cc1` [Example 12, N-[4-({5-[(1,1′-Biphenyl-4-ylsulfonyl)amino]-1H-indol-1-yl}methyl)benzoyl]-L-phenylalanine] here?
Answer: 6 to 78%

Question: `CC(C)(C)c1ccc(S(=O)(=O)Nc2ccc3c(ccn3Cc3ccc(C(=O)N[C@@H](Cc4ccccc4)C(=O)O)cc3)c2)cc1` [Example 13, N-{4-[(5-{[(4-tert-Butylphenyl)sulfonyl]amino}-1H-indol-1-yl)methyl]benzoyl}-L-phenylalanine] was tested. Which inhibition at 25 µM did it give?
Answer: 6 to 78%

Question: Which inhibition at 25 µM does the source give for `O=C(O)CCNC(=O)c1ccc(Cn2ccc3cc(NS(=O)(=O)c4ccc(OC(F)(F)F)cc4)ccc32)cc1` [Example 14, N-(4-{[5-({[4-(Trifluoromethoxy)phenyl]sulfonyl}amino)-1H-indol-1-yl]methyl}benzoyl)-β-alanine] here?
Answer: 6 to 78%

Question: Which inhibition at 25 µM does the source give for `O=C(O)CCNC(=O)c1ccc(Cn2ccc3cc(NS(=O)(=O)c4ccc(-c5ccccc5)cc4)ccc32)cc1` [Example 15, N-[4-({5-[(1,1′-Biphenyl-4-ylsulfonyl)amino]-1H-indol-1-yl}methyl)benzoyl]-β-alanine] here?
Answer: 6 to 78%

Question: Which inhibition at 25 µM does the source give for `CC(C)(C)c1ccc(S(=O)(=O)Nc2ccc3c(ccn3Cc3ccc(C(=O)NCCC(=O)O)cc3)c2)cc1` [Example 16, N-{4-[(5-{[(4-tert-Butylphenyl)sulfonyl]amino}-1H-indol-1-yl)methyl]benzoyl}-β-alanine] here?
Answer: 6 to 78%

Question: `O=C(O)C1CCN(C(=O)c2ccc(Cn3ccc4cc(NS(=O)(=O)c5ccc(Cl)c(Cl)c5)ccc43)cc2)CC1` [Example 17, 1-{4-[(5-{[(3,4-Dichlorophenyl)sulfonyl]amino}-1H-indol-1 yl)methyl]benzoyl}piperidine-4-carboxylic acid] was tested. Which inhibition at 25 µM did it give?
Answer: 6 to 78%

Question: Which inhibition at 25 µM does the source give for `O=C(O)C1CCN(C(=O)c2ccc(Cn3ccc4cc(NS(=O)(=O)c5ccc(-c6ccccc6)cc5)ccc43)cc2)CC1` [Example 18, 1-[4-({5-[(1,1′-Biphenyl-4-ylsulfonyl)amino]-1H-indol-1-yl}methyl)benzoyl]piperidine-4-carboxylic acid] here?
Answer: 6 to 78%

Question: With `CC(C)(C)c1ccc(S(=O)(=O)Nc2ccc3c(ccn3Cc3ccc(C(=O)N4CCC(C(=O)O)CC4)cc3)c2)cc1` [Example 19, 1-{4-[(5-{[(4-tert-Butylphenyl)sulfonyl]amino}-1H-indol-1-yl)methyl]benzoyl}piperidine-4-carboxylic acid] as the molecule, how does the inhibition at 25 µM read?
Answer: 6 to 78%

Question: How did the inhibition at 25 µM turn out when `O=C(O)Cn1ccc2cc(NS(=O)(=O)c3ccc(-c4ccccc4)cc3)ccc21` [Example 20, {5-[(1,1′-Biphenyl-4-ylsulfonyl)amino]-1H-indol-1-yl}acetic acid] was run?
Answer: 6 to 78%

Question: How did the inhibition at 25 µM turn out when `O=C(Cn1ccc2cc(NS(=O)(=O)c3ccc(-c4ccccc4)cc3)ccc21)N[C@@H](Cc1ccccc1)C(=O)O` [Example 21, N-({5-[(1,1′-Biphenyl-4-ylsulfonyl)amino]-1H-indol-1-yl}acetyl)-L-phenylalanine] was run?
Answer: 6 to 78%

Question: `CC(C)(C)c1ccc(S(=O)(=O)Nc2ccc3c(ccn3CC(=O)N[C@@H](Cc3ccccc3)C(=O)O)c2)cc1` [Example 22, N-[(5-{[(4-tert-Butylphenyl)sulfonyl]amino}-1H-indol-1-yl)acetyl]-L-phenylalanine] was tested. Which inhibition at 25 µM did it give?
Answer: 6 to 78%

Question: Which inhibition at 25 µM does the source give for `CC(C)C[C@H](NC(=O)Cn1ccc2cc(NS(=O)(=O)c3ccc(-c4ccccc4)cc3)ccc21)C(=O)O` [Example 23, N-({5-[(1,1′-biphenyl-4-ylsulfonyl)amino]-1H-indol-1-yl}acetyl)-L-leucine] here?
Answer: 6 to 78%

Question: How did the inhibition at 25 µM turn out when `CC(C)C[C@H](NC(=O)Cn1ccc2cc(NS(=O)(=O)c3ccc(C(C)(C)C)cc3)ccc21)C(=O)O` [Example 24, N-[(5-{[(4-tert-butylphenyl)sulfonyl]amino}-1H-indol-1-yl)acetyl]-L-leucine] was run?
Answer: 6 to 78%
